{
  "source": "patent US11241501B2",
  "about": "“Anticancer prodrug for overcoming drug resistance” (Korea University Research and Business Foundation, priority 2018, dated 2022)",
  "key": {"HepG2 cells [1]": {"test_system": "HepG2 cells", "experiment": "WST cell viability assay", "type": "cell-based, human", "description": "(§1) HepG2 cells treated with each compound (5 μM, 24 hr) were co-stained with the mitochondrial marker MitoTracker (green). Boxed regions show co-localization of the test compounds and probe within the mitochondria. […] Experiments were carried out in triplicate and the data shown represent means±SD. **p<0.01. […] HepG2 cells were incubated with BNPP (100 μM) for 2 hr prior to C1 treatment. **p<0.01. […] Cleaved caspase-3 and PARP-1 levels were examined to assess apoptosis induction. C, cleaved.\n(§2) Cells were seeded in 24 well plates at 2×10^5 cells per well and were allowed to adhere for at least 24 h, growth medium was replaced with medium containing C1 or its analogues at the indicated concentrations and times, and cell viability was assessed via the WST-1 assay (Roche Diagnostics, Laval, QC, Canada). For the colony formation assay, cells were seeded in 6-well plates. After 24 h, cells were maintained in the presence of each probe or vehicle dimethyl sulfoxide (DMSO) for 10 days. Colonies were fixed with methanol for 10 min and stained with 0.05% crystal violet in 20% ethanol."}, "WST cell viability assay": {"experiment": "WST cell viability assay", "type": "cell-based, human", "conditions": "human; HepG2 cells, WST assay; read-out: IC50 (cytotoxicity)", "description": "as §1, §2"}, "[2]": {"test_system": "MCF7/Dox xenograft tumors", "experiment": "Xenograft tumor study", "type": "in vivo", "conditions": "mice, C1 15 mg/kg/d, Dox 2 mg/Kg/d + DCA 50 mg/Kg/d, once every four days", "description": "(§3) Data represent the mean±SD. *p<0.05.\n(§4) To assess tumor target specificity and the organ distribution of C1 in vivo and ex vivo, MCF7 and MCF7/Dox cells were injected subcutaneously into mice. When tumor growth reached a detectable size, the mice were treated with C1 (15 mg/kg/d), doxorubicin (2 mg/Kg/d)+DCA (50 mg/Kg/d), or vehicle (DMSO) by i.v. injection once every 4 days for 30 days. After 15 days of treatment, the animals were euthanized via CO2 asphyxiation. The xenograft tumors were excised and photographed. In vivo fluorescence images of the mice were recorded and quantified using a Maestro2 instrument (excitation and emission wavelengths: 500 and 650 nm, respectively). The fluorescence images and auto-fluorescence were then deconvoluted using the software provided with the instrument (Maestro software ver.2.4, CRi, Woburn, Mass., USA) using the multiexcitation spectral analysis function.\n(§5) Five-week-old immunodeficient nude mice (nu/nu) mice (Orient Bio, Inc.) were maintained in pressurized ventilated cages under conditions of repeated controlled illumination (12 h dark; 12 h light) with ad libitum access to sterilized water and food (Cat no: 1314Fort, ALTROMIN company, Germany). MCF-7/Dox cells (1×10^7) in […] PBS were injected subcutaneously into each nude mouse. […] Tumor growth was monitored periodically, and the tumor volume (V) was calculated by using V=½× length×(width)^2. […]"}, "MCF7 xenograft tumors": {"test_system": "MCF7 xenograft tumors", "experiment": "Xenograft tumor study", "type": "in vivo", "conditions": "mice, C1 15 mg/kg/d, Dox 2 mg/Kg/d + DCA 50 mg/Kg/d, once every four days", "description": "as §3, §4, §5"}, "MCF7/Dox cells [3]": {"test_system": "MCF7/Dox cells", "experiment": "Cytochrome c release from mitochondria, immunoblot", "type": "cell-based, human", "description": "Fluorescence intensities were measured with SpectraMAX 13. Data represent means±SD. **p<0.01. […] Data represent means±SD. **[…]. […] Data represent the mean±SD (n=3 experimental replicates). *p<0.05, **p<0.01. […] MCF7/Dox cells were treated with C1 or C3 as indicated, and the cytosolic (C) and mitochondrial (M) fractions were subjected to immunoblot assay. COX-IV and tubulin were used as markers for the mitochondria and cytosol fractions, respectively.\nImmunoblot analyses were performed using antibodies specific for phosphorylated serine 293 PDH-EI (ab92696), p21^Waf1 (sc-397), cleaved PARP (5625), cleaved caspase-3 (9664), COX-IV (4850), and Cytochrome c (4280). They were purchased from Abcam (Cambridge, UK), Santa Cruz Biotechnology (Texas, USA) or Cell Signaling Technology (Massachusetts, USA). Anti-tubulin antibodies were obtained from Sigma-Aldrich (St. Louis, USA). Briefly, cells were washed twice in ice-cold PBS and lysed in a radioimmunoprecipitation assay buffer containing 50 mM Tris/HCl (pH 7.5), 150 mM NaCl, 0.1% sodium dodecyl sulfate (SDS), 1% Triton X-100, 1% sodium deoxycholate, and protease inhibitor mixture. After sonification, the lysate was centrifuged, and the supernatant was recovered and loaded onto a 12% SDS-polyacrylamide gel for electrophoresis. […]"}, "HepG2 cells [4]": {"test_system": "HepG2 cells", "experiment": "Immunoblot assay of cleaved caspase-3 and PARP-1", "type": "cell-based, human", "description": "Immunoblot analyses were performed using antibodies specific for phosphorylated serine 293 PDH-EI (ab92696), p21^Waf1 (sc-397), cleaved PARP (5625), cleaved caspase-3 (9664), COX-IV (4850), and Cytochrome c (4280). They were purchased from Abcam (Cambridge, UK), Santa Cruz Biotechnology (Texas, USA) or Cell Signaling Technology (Massachusetts, USA). Anti-tubulin antibodies were obtained from Sigma-Aldrich (St. Louis, USA). Briefly, cells were washed twice in ice-cold PBS and lysed in a radioimmunoprecipitation assay buffer containing 50 mM Tris/HCl (pH 7.5), 150 mM NaCl, 0.1% sodium dodecyl sulfate (SDS), 1% Triton X-100, 1% sodium deoxycholate, and protease inhibitor mixture. After sonification, the lysate was centrifuged, and the supernatant was recovered and loaded onto a 12% SDS-polyacrylamide gel for electrophoresis."}, "MCF7/Dox cells [5]": {"test_system": "MCF7/Dox cells", "experiment": "Assessment of mitochondrial membrane potential (CLSM)", "type": "cell-based, human", "conditions": "5 μM, 48 h", "description": "To assess the mitochondrial membrane potential, MCF-7/Dox cells (5×10^3 cells) were seeded in glass-bottomed dishes and treated with 5 μM compound C1, C3, DCA, and/or doxorubicin for 48 h. After incubation, the cells were stained with 2 ml of a PBS solution containing 20 μM Mitoview™ 633 (Biotium, USA) and 100 nM Hoechst® 33342 (ThermoFisher, USA) for 30 min at 37° C. with 5% CO2. Fluorescence was detected using a Zeiss LSM 700 confocal laser scanning microscope (Carl Zeiss)."}, "MCF7/Dox cells [6]": {"test_system": "MCF7/Dox cells", "experiment": "Cell death assay, Annexin V flow cytometry", "type": "cell-based, human", "conditions": "5 μM", "description": "MCF-7/Dox cells (8×10^5 cells) were seeded in 60 mm dishes and cultured for 24 h. The cells were treated with 5 μM compound C1, C3, DCA and/or doxorubicin for 48 h. After washing and centrifugation, the harvested cells were stained with the Annexin V/PI Apoptosis Detection kit (BD Biosciences, USA) for 1 min at room temperature. The apoptotic cells were then quantified on a FACSCalibur™ flow cytometer and analyzed using the CELLQUEST™ software (BD Biosciences)."}},
  "data": [
    {"compound": "COc1cccc2c1C(=O)c1c(O)c3c(c(O)c1C2=O)C[C@@](O)(C(=O)CO)C[C@@H]3OC1C[C@H](NC(=O)OC(Cc2cn(CCCCCC[P+](c3ccccc3)(c3ccccc3)c3ccccc3)nn2)c2ccc(NC(=O)C(Cl)Cl)cc2)[C@H](O)[C@H](C)O1.[Br-]", "note": "(stereo partly drawn) [C1]", "values": [
      {"measurement": "effect of BNPP pretreatment on C1-driven decrease in cell viability", "setting": "HepG2 cells [1]; HepG2, BNPP 100 μM 2 hr before treatment", "value": "strongly attenuated"},
      {"measurement": "cell death in cell-survival assays", "setting": "HepG2 cells [1]; compared with C3-C6", "value": "greater cell death in a dose-dependent manner"},
      {"measurement": "IC50", "setting": "WST cell viability assay", "value": "22.1 ± 0.325", "unit": "µM"},
      {"measurement": "reduction in the tumor volume", "setting": "[2]", "value": "~74", "unit": "%"},
      {"measurement": "reduction in the tumor volume", "setting": "MCF7 xenograft tumors", "value": "approximately 78%"},
      {"measurement": "cytochrome c release, cleavage of caspase-3 and PARP-1, decrease in cell viability", "setting": "MCF7/Dox cells [3]", "value": "induces cytochrome c release from the mitochondria"},
      {"measurement": "apoptosis-inducing activity (cleaved caspase-3 and PARP-1)", "setting": "HepG2 cells [4]", "value": "greater apoptosis-inducing activity than C2"},
      {"measurement": "decrease in mitochondrial membrane potential Δψm", "setting": "MCF7/Dox cells [5]", "value": "ca. 96%"},
      {"measurement": "apoptosis by Annexin V flow cytometry", "setting": "MCF7/Dox cells [6]", "value": "promotes both early and late apoptosis"}
    ]}
  ]
}
